Experimental findings from patent publication US20230255934A1, “NURR1 RECEPTOR MODULATORS AND USES THEREOF” (The Regents of the University of California, priority 2020, published 2023) are described below.

Data set [1] deals with Nurr1 target genes Th and Vmat2 in MN9D cells. Description: Target gene transcription assay (qPCR) in MN9D cells. It is filed as cell-based, mouse. The conditions noted are these: for Expression of Th, fold-change relative to vehicle (DMSO) / Expression of Vmat2, fold-change relative to vehicle (DMSO): 10 μM, 24 h, normalized to Hprt. How it is done:
Target Gene Transcription Assays. These assays were carried out using standard protocols. MN9D TET-ON frozen cell stocks (P5) were thawed and grown for 60-72 h on poly-D-lysine pre-treated culture dishes (100 mm) in Dulbecco's Modified Eagle Medium/Nutrient Mixture F-12 (DMEM/F-12; Gibco) supplemented with 5% Tet System Approved FBS (Takara Bio USA) at 37° C., 5% C02 to ˜80% confluency. The resulting cells were then trypsinized with 0.25% Trypsin-EDTA (Gibko) and diluted to 2·10^5 cells/ml with fresh medium. The resulting cell suspension (0.8 mL) was added to 2× concentrated compound in the same medium containing 0.2% DMSO (0.8 mL) in an Eppendorf tube. The cell suspension with compound or vehicle (DMSO) was then seeded onto a 24-well plate pre-treated with Poly-D-Lysine at 0.8 mL per well. Assays were performed under conditions of basal Nurr1 expression, without induction of additional Nurr1 expression using doxycycline.
After 24 h, total RNA was extracted the cells in each well using the Quick-RNA MiniPrep Plus Kit (Zymo Research), according to the manufacturer's instructions. The cDNA was then synthesized from 1000 ng of purified RNA using High-Capacity cDNA Reverse Transcription Kit (Applied Biosystems) and used as template. The qPCR as performed using iTaq Universal SYBR Green Supermix (BioRad) and CFX96 Real-Time Detection System machine (BioRad). Briefly, qPCR was performed in hard-shell 96-well PCR plates (BioRad) using cDNA corresponding to 8.75 ng of starting total RNA in a volume of 15 μl, containing 7.5 μl of SYBR Green Supermix, and 1 μL of 10 μM forward and reverse primers. Cycling parameters for qPCR included an initial denaturation at 95° C. for 3 min, followed by 40 cycles of 95° C. for 5 s and annealing at 56° C. for 30 s. The forward and reverse primers (Table 4) were ordered from IDT. Gene expression was quantified by the comparative2-ΔΔCt method, with the mouse housekeeping gene hypoxanthine-guanine phosphoribosyltransferase (Hprt) used as internal reference to determine the relative mRNA expression. Transcript levels for target genes were normalized to the housekeeping gene Hprt and fold change was compared to gene expression levels from vehicle (DMSO) only treated cells. GraphPad Prism 8 software was used for statistical analysis. Two-way ANOVA was applied for DMSO fold change vs compound. Results are from three independent experiments. Relative average expression±SD; *p<0.05, **p<0.01, ***p<0.001, ****p<0.0001 by ANOVA in comparison expression with 0 μM compound (DMSO only).
A general note: In qPCR the cycle at which signal appears reflects the starting amount.

For the next data set, the target named is T1, Nurr1 LBD Arg563Ala (Homo sapiens, UniProt P43354, R563A).
T1 construct: Mutants of LAP2 Nurr1 were prepared by GenScript starting from LAP2 Nurr1 vector; made in house
T1 sequence (P43354 with tags, fused parts or gaps R563A): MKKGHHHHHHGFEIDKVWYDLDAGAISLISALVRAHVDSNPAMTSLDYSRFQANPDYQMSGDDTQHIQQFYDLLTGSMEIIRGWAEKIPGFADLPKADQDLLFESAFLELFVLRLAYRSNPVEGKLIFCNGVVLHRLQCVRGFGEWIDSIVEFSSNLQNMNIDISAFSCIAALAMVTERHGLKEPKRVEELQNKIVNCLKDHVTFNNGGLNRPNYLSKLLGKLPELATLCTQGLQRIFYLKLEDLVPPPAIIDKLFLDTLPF
Description: MST binding to Arg563Ala mutant Nurr1 LBD. The conditions noted are these: for Amplitude: Table 1, MST amplitude, R563A; for Response Amplitude: Table 2, MST, Arg563Ala. How it is done:
(§1) The plasmid used for the expression of LAP2-tagged Nurr1 LBDs (LAP2 Nurr1) was prepared by GenScript (Piscataway, N.J.) as the product of gene synthesis and subcloning into pET-21a(+) Vector (GenScript) using the Ndel and Xhol sites within the MCS. Mutants of LAP2 Nurr1 were prepared by GenScript starting from LAP2 Nurr1 vector.
(§2) Concentration-dependent association of the indoles with the Nurr1 LBD was carried out using microscale thermophoresis. Stock solutions (10 mM in DMSO) of each indole were serially diluted (200 μM indole, 0.5× dilutions down to 0.0061 μM) in MST buffer (25 mM HEPES, pH 7.4, 150 mM NaCl, and 0.1% Pluronic F127) containing 2% DMSO. The dilutions were carried out with 4% DMSO in the MST buffer for a total of 16 concentrations. Equivalent volumes and concentrations of the fluorescently labeled Nurr1 LBD in MST buffer were added to each ligand dilution in the series to reach a final concentration of 75 nM labeled protein. After incubating for 20 minutes, the samples were loaded into Monolith NT.115 Capillaries (Nanotemper).
(§3) Data were collected using the Monolith NT.115 System (Nanotemper), with settings for all samples at 40% excitation power and 40% MST power. The initial fluorescence was recorded for 3 sec and the thermophoresis fluorescence response was recorded for 20 sec. The data was inspected with Palmist software^5, and data points affected by initial fluorescence quenching or photobleaching were eliminated. The fluorescent response for each sample was normalized to the initial fluorescence using Palmist software to provide the values of thermophoresis (Fn). The resulting data was used to generate a plot of the change in thermophoresis (Fn-Fn0, where Fn=thermophoresis and Fn0=thermophoresis response in unbound range) versus concentration of the ligand. GraphPad Prism v. 8.3.0 software was used to fit the resulting data to a mass action equation for a specific binding with Hill slope, solving for KD: Fn-Fn0═Fmax·[L]^n/(KD^n+[L]^n), where Fmax=maximum amplitude of thermophoresis, [L]=concentration of the ligand at a specific point, KD=dissociation constant, nH=Hill Coefficient.

Another data set has as its target T2, Nurr1 LBD His516Ala (Homo sapiens, UniProt P43354, H516A).
T2 construct: Mutants of LAP2 Nurr1 were prepared by GenScript starting from LAP2 Nurr1 vector; made in house
Nature of the data set: MST binding to His516Ala mutant Nurr1 LBD. The conditions noted are these: for Amplitude (% change) / KD (% change): Table 1, H516 relative to WT; for Amplitude: Table 1, MST amplitude, H516; for Response Amplitude: Table 2, MST, His516Ala. As to the method: as §1, §2, §3

A short description of data set [2]: UV/VIS spectroscopy (A280) under MST assay conditions. The class given is physicochemical. To be noted: A280 linear over all concentrations, 0.1% Pluronic F127.
Setting [3] is: Table 1, Nurr1 variant H516, read-out: KD.
Where [4] appears, read: Table 2, His516Ala, read-out: Affinity (KD).

pKd: −log10 of the molar value. Entries after “also recorded” stand apart in the source; their conditions may differ. Where two headings read alike, the source gives them in different places.

The term pKd denotes the negative decadic logarithm of the Kd, by convention in mol/L.

T2 sequence (P43354 with tags, fused parts or gaps H516A): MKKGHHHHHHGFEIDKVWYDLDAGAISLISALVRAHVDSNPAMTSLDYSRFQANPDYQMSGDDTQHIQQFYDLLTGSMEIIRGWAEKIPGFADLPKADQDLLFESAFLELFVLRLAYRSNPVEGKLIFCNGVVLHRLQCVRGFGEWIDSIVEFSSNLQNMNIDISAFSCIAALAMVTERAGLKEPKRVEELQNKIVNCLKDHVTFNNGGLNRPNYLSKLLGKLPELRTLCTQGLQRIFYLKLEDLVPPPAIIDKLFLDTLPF

Regarding `Brc1ccc2[nH]ccc2c1` [5-bromoindole], in data set [1], the “Effect on expression of Nurr1 target genes Th and Vmat2 (in words)” value is on record as “upregulating the expression; also recorded: supports the transcription”; the “Expression of Th, fold-change relative to vehicle (DMSO)” value is given as 2.2 fold; the “Expression of Vmat2, fold-change relative to vehicle (DMSO)” value came to 2.5 fold. The “Binding to Arg563Ala mutant Nurr1 LBD (in words)” value at Nurr1 LBD Arg563Ala (MST) was “completely eliminated”. In addition, on Nurr1 LBD Arg563Ala, the Amplitude was at most 10 and the “Response Amplitude” value is given as ≤10 (****). In addition, the “Amplitude (% change)” value at Nurr1 LBD Arg563Ala (Table 1, R563A relative to WT) is recorded as at least −86%. Besides, the “Binding affinity for His516Ala mutant versus wildtype (in words)” value on Nurr1 LBD His516Ala (MST) is “statistically unchanged”. Also, on Nurr1 LBD His516Ala, the “Amplitude (% change)” value is given as −43%, the “KD (% change)” value is listed as “+10%”, the Amplitude is given as 41 + 5 and the “Response Amplitude” value is on record as 33 + 5 (*). Moreover, on Nurr1 LBD His516Ala (setting [3]), the pKd was 4.96. The pKd at Nurr1 LBD His516Ala (setting [4]) was 5.14. Moreover, in data set [2], the “Precipitation under MST assay conditions” value is “do not precipitate under the assay conditions”.

As to `Clc1ccc2[nH]ccc2c1` [5-chloroindole], in data set [1], the “Effect on expression of Nurr1 target genes Th and Vmat2 (in words)” value is “concentration dependent; also recorded: upregulating the expression; also recorded: supports the transcription; also recorded: superior to that of DHI”; the “Expression of Th, fold-change relative to vehicle (DMSO)” value is 1.8 fold; the “Expression of Vmat2, fold-change relative to vehicle (DMSO)” value is 2.4 fold. On Nurr1 LBD Arg563Ala, the Amplitude was 23 + 2 and the “Response Amplitude” value was 19 + 2 (****). For the same molecule, the pKd on Nurr1 LBD Arg563Ala (Table 1, Nurr1 variant R563A, read-out: KD) is 4.89. Further, on Nurr1 LBD Arg563Ala (Table 1, R563A relative to WT), the “Amplitude (% change)” value is −66% and the “KD (% change)” value is listed as −48%. Further, the negative-log Kd (pKd) at Nurr1 LBD Arg563Ala (Table 2, Arg563Ala, read-out: Affinity (KD)) is 5.08. Also, at Nurr1 LBD His516Ala, the “Amplitude (% change)” value was −50%, the “KD (% change)” value was −36%, the Amplitude is 34 + 4 and the “Response Amplitude” value is given as 25 + 2 (****). Besides, the pKd on Nurr1 LBD His516Ala (setting [3]) was 4.80. Moreover, on Nurr1 LBD His516Ala (setting [4]), the pKd was 5.07. In data set [2], the “Precipitation under MST assay conditions” value was “do not precipitate under the assay conditions”.
